For data set [1], the system named is Mus musculus. Nature of the data set: Antihemorrhagic activity in ddY mouse assessed as inhibition of Protobothrops flavoviridis venom-induced hemorrhagic lesion formation compound incubated with venom for 10 mins and administered subcutaneously measured after 24 hrs. The class given is functional, organism-based.
A short description of data set [2]: Dissociation constant, pKa of the compound. It is filed as physicochemical.
Data set [3] has as its system Mus musculus. Nature of the data set: Ratio of caffeic acid IC50 to compound IC50 for antihemorrhagic activity in ddY mouse assessed as inhibition of Protobothrops flavoviridis venom-induced hemorrhagic lesion formation compound incubated with venom for 10 mins and administered subcutaneously measured after 24 hrs. It is filed as functional.
For data set [4], the system named is Mus musculus. Nature of the data set: Ratio of benzoic acid IC50 to compound IC50 for antihemorrhagic activity in ddY mouse assessed as inhibition of Protobothrops flavoviridis venom-induced hemorrhagic lesion formation compound incubated with venom for 10 mins and administered subcutaneously measured after 24 hrs. The class given is functional.

`O=C(O)c1ccc(C(=O)O)c(C(=O)O)c1`: in the data set with Mus musculus [1], the IC50 worked out at 62 nM. The pKa in data set [2] is 2.84.

Regarding `O=C(O)c1cc(C(=O)O)c(C(=O)O)cc1C(=O)O` [PYROMELLITIC ACID], the IC50 in the data set with Mus musculus [1] was found to be 35 nM. The molecule also showed a pKa in data set [2] of 1.87. Turning to `O=C(O)/C=C/c1ccc(O)c(O)c1` [CAFFEIC ACID], the pKa in data set [2] came out at 4.58.

For the molecule `O=C(O)/C=C/C=C/C(=O)O`, the IC50 with Mus musculus [1] was found to be 110 nM. Take `O=C(O)c1c(C(=O)O)c(C(=O)O)c(C(=O)O)c(C(=O)O)c1C(=O)O` [MELLITIC ACID]: the IC50 with Mus musculus [1] turned out to be 43 nM. Besides, in data set [2], the pKa worked out at 1.15. `Cc1ccc(C(=O)O)cc1` [4-METHYLBENZOIC ACID]: in the data set on Mus musculus [1], the IC50 came to 220 nM. The molecule also registered a pKa in data set [2] of 4.37. For `O=C(O)c1cc(C(=O)O)c(C(=O)O)c(C(=O)O)c1C(=O)O` [BENZENEPENTACARBOXYLIC ACID] the same measures were 43 nM and 1.93.

As to `O=C(O)c1cc(C(=O)O)cc(C(=O)O)c1`, the IC50 in the data set on Mus musculus [1] was determined as 67 nM. Besides, in data set [2], the pKa was found to be 2.98. As to `O=C(O)c1ccccc1` [BENZOIC ACID], the IC50 in the data set with Mus musculus [1] amounted to 200 nM. Turning to `O=C(O)c1ccccc1Cl`, the IC50 in the data set with Mus musculus [1] came to 250 nM. The pKa in data set [2] was 2.97. Consider `O=C(O)c1ccccc1[N+](=O)[O-]`, for which, in the data set on Mus musculus [1], the IC50 came out at 260 nM. On to `O=C(O)c1ccc(C(=O)O)cc1` [TEREPHTHALIC ACID], for which the IC50 with Mus musculus [1] stood at 90 nM. Further, the “Ratio IC50” value in the data set on Mus musculus [3] and with Mus musculus [4] was 2 each time. `O=C(O)c1ccccc1O` [SALICYLIC ACID]: the 50% inhibitory concentration (IC50) in the data set with Mus musculus [1] came to 200 nM.

Turning to `O=C(O)c1ccc(O)cc1` [PARABEN], the IC50 in the data set with Mus musculus [1] is 200 nM. The pKa in data set [2] came to 4.57. Consider `O=C(O)c1ccccc1C(=O)O` [PHTHALIC ACID], for which the IC50 with Mus musculus [1] turned out to be 100 nM. The “Ratio IC50” value in the data set on Mus musculus [3] and in the data set on Mus musculus [4] was 2 throughout. Take `O=C(O)c1cccc(O)c1` [3-HYDROXYBENZOIC ACID]: the IC50 in the data set with Mus musculus [1] was 200 nM. In data set [2], this molecule returned a pKa of 4.08. Consider `O=C(O)c1ccc([N+](=O)[O-])cc1` [4-NITROBENZOIC ACID], for which the IC50 in the data set on Mus musculus [1] was determined as 240 nM. Further, the pKa in data set [2] is 3.42.

With `O=C(O)c1cccc(C(=O)O)c1` [ISOPHTHALIC ACID], the IC50 in the data set with Mus musculus [1] stood at 100 nM. Further, the “Ratio IC50” value with Mus musculus [3] and with Mus musculus [4] was 2 throughout.

By IC50 is commonly meant the concentration at which inhibition is half-maximal. The term pKa denotes the pH at which an ionisable group is half protonated.

These data come from ChEMBL document CHEMBL1921721, “Benzenepolycarboxylic acids with potential anti-hemorrhagic properties and structure-activity relationships” (Bioorg Med Chem, 2011).
